Experiment [1] deals with human orexin receptor 1 (Homo sapiens (Human), UniProt O43613). Nature of the experiment: Orexin antagonist activity, intracellular calcium FLIPR assay (orexin receptor 1). The class given is cell-based. The conditions noted are these: RBL-2H3 cells stably expressing human orexin receptor 1; orexin-A at approx. 80% maximal response; 15 min preincubation; read-out: Human Orexin1R IC50. On the procedure: (§1) Orexin antagonist activity was determined by measuring changes in intracellular calcium levels using a Ca^2+ sensitive fluorescent dye. The changes in fluorescent signal were monitored by Fluorescent Imaging Plate Reader (FLIPR™) technology available from Molecular Devices, LLC, U.S.A. Orexin mediated increases in intracellular Ca^2+ concentration were readily detected upon activation with orexin-A. Twenty-four hours prior to the assay, RBL-2H3 cells stably expressing either human orexin receptor 1 or human orexin receptor 2 were seeded in cell culture medium in black, clear-bottom 384-well plates (commercially available from Corning Inc., U.S.A.) and grown overnight at 37° C., 5% CO2. On the day of the assay, cell culture media was removed and cells were loaded with Calcium 5 Dye (commercially sold by Molecular Devices, LLC, U.S.A.) for 1 hour at 37° C., 5% CO2. Test compounds (at 10 point half log concentration response curves from 10 μM) were added to cells for 15 minutes prior to the addition of orexin-A to all wells, to achieve a final concentration that produces approximately an 80% maximal response. The IC50 values were determined from ten point concentration response curves. Curves were generated using the average of two wells for each data point. The results obtained are shown in the table below in which ‘NT’ denotes ‘Not Tested’.
Sequence of human orexin receptor 1 (O43613 whole entry): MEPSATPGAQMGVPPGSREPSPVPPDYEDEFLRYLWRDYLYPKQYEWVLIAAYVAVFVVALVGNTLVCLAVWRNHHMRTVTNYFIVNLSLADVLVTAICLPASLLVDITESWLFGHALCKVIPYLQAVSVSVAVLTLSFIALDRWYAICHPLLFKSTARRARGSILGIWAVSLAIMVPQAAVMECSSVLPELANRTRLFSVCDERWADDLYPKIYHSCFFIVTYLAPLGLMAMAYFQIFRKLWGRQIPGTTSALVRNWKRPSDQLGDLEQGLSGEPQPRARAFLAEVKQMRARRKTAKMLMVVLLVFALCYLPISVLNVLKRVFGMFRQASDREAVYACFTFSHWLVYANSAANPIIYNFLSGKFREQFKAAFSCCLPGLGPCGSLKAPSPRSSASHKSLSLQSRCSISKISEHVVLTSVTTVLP

The target of experiment [2] is human orexin receptor 2 (Homo sapiens (Human), UniProt O43614). Nature of the experiment: Orexin antagonist activity, intracellular calcium FLIPR assay (orexin receptor 2). The class given is cell-based. The conditions noted are these: RBL-2H3 cells stably expressing human orexin receptor 2; orexin-A at approx. 80% maximal response; 15 min preincubation; read-out: Human Orexin2R IC50. On the procedure:
as §1
For orientation: Calcium flux is commonly read through the fluorescence of an indicator in the cells.

For 25 compounds, IC50 results are on record in US9790220B2, “Substituted cyclopentanes, tetrahydrofuranes and pyrrolidines as orexin receptor antagonists” (Takeda Pharmaceutical Company Limited, priority 2014, dated 2017).

Sequence of human orexin receptor 2 (O43614 whole entry): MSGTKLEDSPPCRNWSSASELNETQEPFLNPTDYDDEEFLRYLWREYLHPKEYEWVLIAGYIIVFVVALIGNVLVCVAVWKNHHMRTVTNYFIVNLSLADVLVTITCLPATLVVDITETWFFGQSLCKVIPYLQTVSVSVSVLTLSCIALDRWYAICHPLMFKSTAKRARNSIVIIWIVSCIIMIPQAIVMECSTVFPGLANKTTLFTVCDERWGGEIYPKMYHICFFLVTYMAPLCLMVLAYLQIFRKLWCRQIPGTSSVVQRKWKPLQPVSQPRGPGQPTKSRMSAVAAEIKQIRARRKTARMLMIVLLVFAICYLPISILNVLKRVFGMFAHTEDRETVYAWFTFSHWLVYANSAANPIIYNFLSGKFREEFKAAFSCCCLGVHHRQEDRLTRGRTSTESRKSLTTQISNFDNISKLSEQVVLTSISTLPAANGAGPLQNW

Broadly, the IC50 is the concentration that gives 50% inhibition. Regarding `CCOc1ccc(C)nc1C(=O)NC1CCCC1Cc1ccc2ccccc2n1` (stereo not drawn) [Example 27, 3-Ethoxy-6-methyl-N-[2-(quinolin-2-ylmethyl)cyclopentyl]pyridine-2-carboxamide], the IC50 in experiment [1] was 71 nM; in experiment [2], 6000 nM.

In the case of `O=C(N[C@H]1CCC[C@@H]1Nc1nc2ccc(F)cc2s1)c1ncccc1-n1ccnn1` [Example 24, N-[(1S,2S)-2-[(6-Fluoro-1,3-benzothiazol-2-yl)amino]cyclopentyl]-3-(1H-1,2,3-triazol-1-yl)pyridine-2-carboxamide], the half-inhibitory concentration (IC50) is 86 nM in experiment [1] and more than 10000 nM in experiment [2].

With `O=C(N[C@H]1CCC[C@@H]1Nc1nc2ccc(F)cc2s1)c1ncccc1Br` [Example 1, 3-Bromo-N-[(1S,2S)-2-[(6-fluoro-1,3-benzothiazol-2-yl)amino]cyclopentyl]-pyridine-2-carboxamide], the IC50 was 43 nM in experiment [1] and more than 10000 nM in experiment [2].

As to `CCOc1cccnc1C(=O)N[C@H]1CCC[C@@H]1Nc1nc2ccc(F)cc2s1` [Example 18, 3-Ethoxy-N-[(1S,2S)-2[(6-fluoro-1,3-benzothiazol-2-yl)amino]cyclopentyl]pyridine-2-carboxamide], the IC50 is 41 nM in experiment [1] and 8800 nM in experiment [2].

`O=C(N[C@H]1CCC[C@@H]1Nc1nc2ccc(Cl)cc2s1)c1ncccc1-n1nccn1` [Example 21, N-[(1S,2S)-2-[(6-Chloro-1,3-benzothiazol-2-yl)amino]cyclopentyl]-3-(2H-1,2,3-triazol-2-yl)pyridine-2-carboxamide]: the figures for the IC50 in experiment [1] and in experiment [2] were 24 nM and more than 10000 nM, respectively.

With `COc1ccc(C)nc1C(=O)N[C@H]1CCC[C@@H]1Nc1nc2ccc(F)cc2s1` [Example 9, N-[(1S,2S)-2-[(6-Fluoro-1,3-benzothiazol-2-yl)amino]cyclopentyl]-3-methoxy-6-methylpyridine-2-carboxamide], the half-inhibitory concentration (IC50) in experiment [1] is 84 nM; in experiment [2] it was more than 10000 nM.

Regarding `O=C(N[C@H]1CCC[C@@H]1Nc1nc2ccc(F)cc2s1)c1ncccc1N1CCCC1` [Example 14, N-[(1S,2S)-2-[(6-Fluoro-1,3-benzothiazol-2-yl)amino]cyclopentyl]-3-(pyrrolidin-1-yl)pyridine-2-carboxamide], the IC50 in experiment [1] is 170 nM; in experiment [2], more than 10000 nM.

In the case of `CCOc1ccc(C)nc1C(=O)NC1CCCC1Cc1ccc2ccccc2n1` (stereo not drawn) [Example 26, 3-Ethoxy-6-methyl-N-[2-(quinolin-2-ylmethyl)cyclopentyl]pyridine-2-carboxamide], in experiment [1], the IC50 worked out at 910 nM.

For `O=C(N[C@H]1CCC[C@@H]1Nc1nc2ccc(F)cc2s1)c1ncccc1F` [Example 11, 3-Fluoro-N-[(1S,2S)-2-[(6-fluoro-1,3-benzothiazol-2-yl)amino]cyclopentyl]pyridine-2-carboxamide], the IC50 in experiment [1] was 330 nM; in experiment [2] it was more than 10000 nM.

With `COc1ccc(C(F)(F)F)nc1C(=O)N[C@H]1CCC[C@@H]1Nc1nc2ccc(F)cc2s1` [Example 17, N-[(1S,2S)-2-[(6-Fluoro-1,3-benzothiazol-2-yl)amino]cyclopentyl]-3-methoxy-6-(trifluoromethyl)pyridine-2-carboxamide], the figures for the 50% inhibitory concentration (IC50) in experiment [1] and in experiment [2] were 210 nM and 9600 nM, respectively.

Turning to `COc1cccnc1C(=O)N[C@H]1CCC[C@@H]1Nc1cnc2ccccc2n1` [Example 16, 3-Methoxy-N-[(1S,2S)-2-[(quinoxalin-2-yl)amino]cyclopentyl]pyridine-2-carboxamide], the IC50 in experiment [1] came to 630 nM.

With `COc1cccnc1C(=O)N[C@H]1CCC[C@@H]1Nc1nc2ccc(F)cc2o1` [Example 7, N-[(1S,2S)-2-[(6-Fluoro-1,3-benzoxazol-2-yl)amino]cyclopentyl]-3-methoxypyridine-2-carboxamide], the half-inhibitory concentration (IC50) was 540 nM in experiment [1] and more than 10000 nM in experiment [2].

In the case of `COC1CN(c2cccnc2C(=O)N[C@H]2CCC[C@@H]2Nc2nc3ccc(F)cc3s2)C1` [Example 15, N-[(1S,2S)-2-[(6-Fluoro-1,3-benzothiazol-2-yl)amino]cyclopentyl]-3-(3-methoxyazetidin-1-yl)pyridine-2-carboxamide], the values for the IC50 in experiment [1] and in experiment [2] were 150 nM and more than 10000 nM, respectively.

With `O=C(N[C@H]1CCC[C@@H]1Nc1nc2ccc(F)cc2s1)c1ncccc1-n1cccn1` [Example 10, N-[(1S,2S)-2-[(6-Fluoro-1,3-benzothiazol-2-yl)amino]cyclopentyl]-3-(1H-pyrazol-1-yl)pyridine-2-carboxamide], the IC50 in experiment [1] was 21 nM; in experiment [2] it was more than 10000 nM.

With `COc1cccnc1C(=O)N[C@H]1CCC[C@@H]1Nc1nc2ccc(F)cc2s1` [Example 3, N-[(1S,2S)-2-[(6-Fluoro-1,3-benzothiazol-2-yl)amino]cyclopentyl]-3-methoxypyridine-2-carboxamide], the half-maximal inhibitory concentration (IC50) in experiment [1] is 170 nM; in experiment [2] it was more than 10000 nM.

As for `O=C(N[C@H]1CCC[C@@H]1Nc1nc2ccc(Cl)cc2o1)c1ncccc1OC(F)F` [Example 25, N-[(1S,2S)-2-[(6-Chloro-1,3-benzoxazol-2-yl)amino]cyclopentyl]-3-(difluoromethoxy)pyridine-2-carboxamide], the IC50 in experiment [1] was 660 nM; in experiment [2], more than 10000 nM.

`O=C(N[C@H]1CCC[C@@H]1Nc1nc2ccc(F)cc2s1)c1ncccc1N1CCCCC1` [Example 12, N-[(1S,2S)-2-[(6-Fluoro-1,3-benzothiazol-2-yl)amino]cyclopentyl]-3-(piperidin-1-yl)pyridine-2-carboxamide]: the IC50 in experiment [1] is 42 nM; in experiment [2] it was more than 10000 nM.

Consider `O=C(N[C@H]1CCC[C@@H]1Nc1nc2ccc(F)cc2s1)c1ncccc1-n1nccn1` [Example 6, N-[(1S,2S)-2-[(6-Fluoro-1,3-benzothiazol-2-yl)amino]cyclopentyl]-3-(2H-1,2,3-triazol-2-yl)pyridine-2-carboxamide], for which the 50% inhibitory concentration (IC50) is 8.6 nM in experiment [1] and more than 10000 nM in experiment [2].

As for `O=C(N[C@H]1CCC[C@@H]1Nc1nc2ccc(Cl)cc2s1)c1ncccc1OC(F)F` [Example 22, N-[(1S,2S)-2-[(6-Chloro-1,3-benzothiazol-2-yl)amino]cyclopentyl]-3-(difluoromethoxy)pyridine-2-carboxamide], the values for the IC50 in experiment [1] and in experiment [2] were 300 nM and more than 10000 nM, respectively.

With `O=C(N[C@H]1CCC[C@@H]1Nc1nc2ccc(F)cc2s1)c1ncccc1OC(F)(F)F` [Example 19, N-[(1S,2S)-2-[(6-Fluoro-1,3-benzothiazol-2-yl)amino]cyclopentyl]-3-(trifluoromethoxy)pyridine-2-carboxamide], the results for the IC50 in experiment [1] and in experiment [2] were 33 nM and 3600 nM, respectively.

Regarding `O=C(N[C@H]1CCC[C@@H]1Nc1nc2ccc(F)cc2o1)c1ncccc1OC(F)F` [Example 23, 3-(Difluoromethoxy)-N-[(1S,2S)-2-[(6-fluoro-1,3-benzoxazol-2-yl)amino]cyclopentyl]pyridine-2-carboxamide], the half-inhibitory concentration (IC50) in experiment [1] was 290 nM; in experiment [2], more than 10000 nM.

`COc1cccnc1C(=O)N(C)[C@H]1CCC[C@@H]1Nc1nc2ccc(F)cc2s1` [Example 5, N-[(1S,2S)-2-[(6-Fluoro-1,3-benzothiazol-2-yl)amino]cyclopentyl]-3-methoxy-N-methylpyridine-2-carboxamide]: the results for the concentration for half-maximal inhibition (IC50) in experiment [1] and in experiment [2] were 14 nM and 2800 nM, respectively.

For `O=C(N[C@H]1CCC[C@@H]1Nc1nc2ccc(F)cc2s1)c1ncccc1OC(F)F` [Example 20, 3-(Difluoromethoxy)-N-[(1S,2S)-2-[(6-fluoro-1,3-benzothiazol-2-yl)amino]cyclopentyl]pyridine-2-carboxamide], the results for the IC50 in experiment [1] and in experiment [2] were 100 nM and more than 10000 nM, respectively.

As for `CC(C)Oc1cccnc1C(=O)N[C@H]1CCC[C@@H]1Nc1nc2ccc(F)cc2s1` [Example 8, N-[(1S,2S)-2-[(6-Fluoro-1,3-benzothiazol-2-yl)amino]cyclopentyl]-3-(propan-2-yloxy)pyridine-2-carboxamide], the figures for the half-maximal inhibitory concentration (IC50) in experiment [1] and in experiment [2] were 34 nM and 3300 nM, respectively.

On to `O=C(N[C@H]1CCC[C@@H]1Nc1nc2ccc(F)cc2s1)c1ncccc1N1CCC1` [Example 13, 3-(Azetidin-1-yl)-N-[(1S,2S)-2-[(6-fluoro-1,3-benzothiazol-2-yl)amino]cyclopentyl]pyridine-2-carboxamide], for which the values for the IC50 in experiment [1] and in experiment [2] were 69 nM and more than 10000 nM, respectively.
